In one test the target is Butyrylcholinesterase (Equus caballus, UniProt Q9N1N9).
Test [1] deals with Acetylcholinesterase (Electrophorus electricus, UniProt O42275).
Description: Inhibition of acetylcholinesterase (AChE) in electric eel (type V-S) by modified radiometric assay
For test [2], the target named is Acetylcholinesterase (Homo sapiens, UniProt P22303).
Description: Inhibition of acetylcholinesterase (AChE) of human red blood cell (type XIII) by modified radiometric AChE assay

In general, IC50 refers to the concentration that gives 50% inhibition. Low values mean greater potency in that assay, high ones weaker potency in that assay.

Sequence of Butyrylcholinesterase (Q9N1N9 whole entry): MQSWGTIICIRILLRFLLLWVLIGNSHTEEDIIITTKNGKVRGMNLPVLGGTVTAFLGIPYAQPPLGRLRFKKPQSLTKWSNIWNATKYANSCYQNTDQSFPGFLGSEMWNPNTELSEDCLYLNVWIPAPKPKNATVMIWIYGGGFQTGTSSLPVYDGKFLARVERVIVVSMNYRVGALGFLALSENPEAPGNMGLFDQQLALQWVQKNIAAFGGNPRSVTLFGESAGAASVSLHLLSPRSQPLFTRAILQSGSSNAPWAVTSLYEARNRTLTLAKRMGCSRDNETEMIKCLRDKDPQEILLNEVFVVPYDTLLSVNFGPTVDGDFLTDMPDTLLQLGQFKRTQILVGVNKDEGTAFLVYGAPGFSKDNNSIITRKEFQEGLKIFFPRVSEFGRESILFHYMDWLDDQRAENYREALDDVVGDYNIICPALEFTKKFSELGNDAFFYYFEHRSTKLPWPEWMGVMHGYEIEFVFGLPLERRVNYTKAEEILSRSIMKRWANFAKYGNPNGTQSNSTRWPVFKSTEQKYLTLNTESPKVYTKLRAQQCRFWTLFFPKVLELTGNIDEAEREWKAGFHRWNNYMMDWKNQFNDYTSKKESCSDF
Sequence of Acetylcholinesterase (Homo sapiens, UniProt P22303) (P22303 whole entry): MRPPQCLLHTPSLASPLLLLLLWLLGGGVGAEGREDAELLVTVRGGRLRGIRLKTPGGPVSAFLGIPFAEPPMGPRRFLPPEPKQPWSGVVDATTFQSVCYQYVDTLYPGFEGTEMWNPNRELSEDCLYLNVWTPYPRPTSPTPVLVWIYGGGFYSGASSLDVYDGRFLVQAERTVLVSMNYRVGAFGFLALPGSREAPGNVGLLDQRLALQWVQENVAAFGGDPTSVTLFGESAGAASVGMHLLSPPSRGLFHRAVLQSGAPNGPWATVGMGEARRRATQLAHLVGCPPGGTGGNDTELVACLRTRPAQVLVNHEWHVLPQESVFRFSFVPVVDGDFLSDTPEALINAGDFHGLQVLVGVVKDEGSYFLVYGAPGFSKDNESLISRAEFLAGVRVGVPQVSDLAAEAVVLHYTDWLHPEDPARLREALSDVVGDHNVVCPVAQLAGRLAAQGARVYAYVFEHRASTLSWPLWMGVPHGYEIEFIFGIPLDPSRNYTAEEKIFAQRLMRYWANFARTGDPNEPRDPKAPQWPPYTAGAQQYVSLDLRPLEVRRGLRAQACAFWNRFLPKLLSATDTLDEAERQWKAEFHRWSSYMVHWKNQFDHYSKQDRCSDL
Sequence of Acetylcholinesterase (Electrophorus electricus, UniProt O42275) (O42275 whole entry): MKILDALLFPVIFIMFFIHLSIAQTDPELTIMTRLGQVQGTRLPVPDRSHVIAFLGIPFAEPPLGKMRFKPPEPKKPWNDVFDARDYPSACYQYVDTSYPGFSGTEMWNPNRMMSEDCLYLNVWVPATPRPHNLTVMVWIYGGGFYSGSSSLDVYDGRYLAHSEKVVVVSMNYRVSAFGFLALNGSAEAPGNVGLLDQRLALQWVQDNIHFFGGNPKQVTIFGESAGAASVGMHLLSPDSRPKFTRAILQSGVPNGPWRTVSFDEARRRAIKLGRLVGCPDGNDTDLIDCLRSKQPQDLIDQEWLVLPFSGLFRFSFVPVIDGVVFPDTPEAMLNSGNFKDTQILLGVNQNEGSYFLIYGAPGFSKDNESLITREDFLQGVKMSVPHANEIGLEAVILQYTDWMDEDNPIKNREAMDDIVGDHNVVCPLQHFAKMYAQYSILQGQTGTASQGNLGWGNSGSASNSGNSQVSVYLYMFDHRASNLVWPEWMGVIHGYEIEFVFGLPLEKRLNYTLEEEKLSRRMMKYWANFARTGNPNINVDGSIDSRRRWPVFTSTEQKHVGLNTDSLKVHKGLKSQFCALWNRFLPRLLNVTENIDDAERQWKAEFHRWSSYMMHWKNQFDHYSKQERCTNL
Description for Butyrylcholinesterase: Inhibition of (BChE) Butyrylcholinesterase of horse serum

Take `Nc1c2c(nc3ccccc13)CCCC2O` (centres undefined) [VELNACRINE]: the half-maximal inhibitory concentration (IC50) against Butyrylcholinesterase was 53.3 nM; against Acetylcholinesterase [1] it was 59.8 nM.

As for `Nc1c2c(nc3cc(Cl)ccc13)C1CCC2C1` (centres undefined), the IC50 is 4.5 nM against Acetylcholinesterase [2], 21.7 nM against Butyrylcholinesterase and 2.33 nM at Acetylcholinesterase [1].

Consider `Nc1c2c(nc3cc(Cl)ccc13)CCCC2`, for which the half-inhibitory concentration (IC50) at Acetylcholinesterase [1] worked out at 2.87 nM.

In turn, `CNC(=O)Oc1ccc2c(c1)[C@]1(C)CCN(C)[C@@H]1N2C` [PHYSOSTIGMINE] displayed an IC50 against Butyrylcholinesterase of 4670 nM.

As for `Nc1c2c(nc3c(Cl)cccc13)C1CCC2C1` (centres undefined), the IC50 against Acetylcholinesterase [2] was 84.3 nM; against Butyrylcholinesterase it was 207 nM; at Acetylcholinesterase [1], 493 nM.

With `Nc1c2c(nc3ccc(Cl)cc13)CCCC2`, the concentration for half-maximal inhibition (IC50) was determined as 743 nM on Acetylcholinesterase [2], 0.7 nM against Butyrylcholinesterase and 40 nM against Acetylcholinesterase [1].

Regarding `Nc1c2c(nc3cccc(Cl)c13)C1CCC2C1` (centres undefined), the half-maximal inhibitory concentration (IC50) came to 42.2 nM on Acetylcholinesterase [2], 15.3 nM on Butyrylcholinesterase and 6.52 nM against Acetylcholinesterase [1].

For `Nc1c2c(nc3cccc(Cl)c13)CCCC2`, the half-inhibitory concentration (IC50) was determined as 9.4 nM at Acetylcholinesterase [2], 12.7 nM against Butyrylcholinesterase and 4.43 nM against Acetylcholinesterase [1].

As for `Nc1c2c(nc3c(Cl)cccc13)CCCC2`, the 50% inhibitory concentration (IC50) is 68.9 nM on Acetylcholinesterase [2], 45 nM at Butyrylcholinesterase and 36 nM on Acetylcholinesterase [1].

For `Nc1c2c(nc3ccccc13)C1CCC2C1` (centres undefined), the figures for the IC50 against Butyrylcholinesterase and on Acetylcholinesterase [1] were 1.3 nM and 11.7 nM, respectively.

Values taken from ChEMBL document CHEMBL1126447 (Bioorg Med Chem Lett, 1992).
